Test results published in patent US20130108562A1, “Cosmetic Composition Containing Oligopeptides” (Cognis IP Management GmbH, priority 2010, published 2013).
Residues, ends and D or L forms follow the SMILES beside them.

Tests used:
[1] = tested on: tropoelastin gene (ELN); assay: ELN mRNA level by qRT-PCR in human dermal fibroblasts; format: cell-based; settings: summary of Table 3
Protocol: The peptide Acetyl-Val-Leu-Leu-Lys was incubated on human dermal fibroblasts cultured in vitro and the expression of the tropoelastin gene (ELN) was measured using a qRT-PCR method.
The human dermal fibroblasts were cultured within growth medium enriched with FCS at 10% and incubated for 1 day at 37° C. Then the growth medium was exchanged for a standard medium without FCS but with or without the Acetyl-Val-Leu-Leu-Lys peptide at 1.0 μg/ml. Cells were incubated for 24 hours, 48 hours or 72 hours at 37° C. before extraction of total RNA. The level of ELN mRNAs in the different conditions was evaluated comparatively to the level of EEF1A 1 mRNA as housekeeping gene (qRT-PCR method) for each condition. The results were calculated through the level of ELN mRNA measured in the control condition (without peptide treatment) as 100% and presented as a mean+/−SEM from 3 assays in duplicate.

[2] = tested on: collagen type I; assay: Collagen type I expression by immunocytochemistry in human dermal fibroblasts; format: cell-based
Protocol: The peptide Acetyl-Val-Leu-Leu-Lys was incubated on human dermal fibroblasts cultured in vitro and the expression of the collagen type I was measured using an immunocytochemistry (ICC) method.
The human dermal fibroblasts were cultured within growth medium enriched with Foetal Calf Serum (FCS) at 10% and incubated for 2 days at 37° C. Then the growth medium was exchanged for a standard medium containing sodium ascorbyl at 5 μg/ml with FCS at 1% and with or without the Acetyl-Val-Leu-Leu-Lys peptide at 5.1 mg/ml. A positive control condition with sodium ascorbyl at 20 μg/ml was performed. Cells were incubated for 72 hours at 37° C. with the peptide. Cultured human dermal fibroblasts were fixed by acetone for 10 minutes at −20° C. and incubated for 1 hour at room temperature with a primary antibody against collagen type I [Abcam] diluted at 1/250. Fluorescein isothiocyanate (FITC) labelled secondary antibody [CliniSciences, France] was used for revelation. The obtained immuno-staining was observed using a confocal laser scanning microscope [TCS SPE, Leica, France] and quantified by an image analyzer [Quantimet Q5001W, Leica, France]. The staining occupation was evaluated. The results were presented as a mean+/−SEM (Standard Error of Mean) from 6 measures.

[3] = tested on: collagen type XIV gene (COL14A1); assay: COL14A1 mRNA level by qRT-PCR in human dermal fibroblasts; format: cell-based; settings: summary of Table 2
Protocol: The peptide Acetyl-Val-Leu-Leu-Lys was incubated on human dermal fibroblasts cultured in vitro and the expression of the collagen type XIV gene (COL14A1) was measured using a quantitative reverse-transcription and polymerase chain reaction (qRT-PCR) method.
(§1) The human dermal fibroblasts were cultured within growth medium enriched with FCS at 10% and incubated for 1 day at 37° C. Then the growth medium was exchanged for a standard medium without FCS but with or without the Acetyl-Val-Leu-Leu-Lys peptide at 1.0 μg/ml. Cells were then incubated for 24 hours, 48 hours or 72 hours at 37° C. before extraction of total RNA. The level of COL14A1 mRNAs in the different conditions was evaluated comparatively to the level of EEF1A1 mRNA as housekeeping gene (qRT-PCR method) for each condition.
The results were calculated through the level of COL14A1 mRNA measured in the control condition (without peptide treatment) for the different incubation times as 100% and presented as a mean+/−SEM from 3 or 5 assays in duplicate.

[4] = tested on: glutaredoxin-2 gene (GLRX2); assay: GLRX2 mRNA level by qRT-PCR in human dermal fibroblasts; format: cell-based; settings: summary of Table 4
Protocol: The peptide Acetyl-Val-Leu-Leu-Lys was incubated on human dermal fibroblasts cultured in vitro and the expression of the glutaredoxin-2 gene (GLRX2), involved in cellular anti-oxidative defenses) was measured using a qRT-PCR method.
as §1, with “FCS” for “FCS but”, “were” for “were then”, “6” for “24 hours, 48 hours or 72”, “GLRX2” for “COL14A1”, “mRNAs” for “mRNAs in the different conditions”, “HPRT1 (hypoxanthine phosphoribosyltransferase I)” for “EEF1A1”
The results were calculated through the level of GLRX2 mRNA measured in the control condition (without peptide treatment) as 100% and presented as a mean+/−SEM from 3 assays in duplicated.

[5] = tested on: injured rabbit cornea; settings: Hara et al., Exp Eye Res, 2001; cited from earlier work
[6] = tested on: epithelial cells from rabbit cornea; settings: Hara et al., Exp Eye Res, 2001; cited from earlier work

## CC(=O)N[C@H](C(=O)N[C@@H](CC(C)C)C(=O)N[C@@H](CC(C)C)C(=O)N[C@@H](CCCCN)C(=O)O)C(C)C [Acetyl-Val-Leu-Leu-Lys, N-Acetyl-Val-Leu-Leu-Lys-OH] (Ac-VLLK-OH)
[1]
  effect on level of ELN gene expression (in words): specifically and significantly increased the level of ELN gene expression
[2]; summary of Table 1
  effect on level of collagen type I (in words): significantly increased the level of collagen type I
[3]
  effect on level of COL14A1 gene expression (in words): specifically and significantly increased the level of COL14A1 gene expression
[4]
  effect on level of GLRX2 gene expression (in words): specifically increased the level of GLRX2 gene expression

## Val-Leu-Leu-His (VLLH; printed: Val-Leu-Leu-His)
[5]
  wound healing activity on injured rabbit cornea (in words): significant wound healing activity on injured rabbit cornea
[6]
  proliferation of epithelial cells from rabbit cornea (in words): stimulate proliferation of epithelial cells from rabbit cornea

## sodium ascorbyl [reference compound]
[2]; positive control at 20 μg/ml, 72 hours, human dermal fibroblasts, mean +/− SEM from 6 measures, control 10.68 +/− 1
  % of staining occupation (collagen type I immuno-staining): 18.01 +/− 1.07 (**) %
